System: MV-4-11 cells
Assay: Gene expression microarray analysis (Affymetrix PrimeView) and GSEA
Type: cell-based, human
Set-up: RFU PODN (11730768_x_at) / Fold change /veh PODN (11730768_x_at) / RFU LINC00158 (11744669_a_at) / Fold change /veh LINC00158 (11744669_a_at) / RFU DUSP10 (11751237_a_at) / Fold change /veh DUSP10 (11751237_a_at) / RFU ID3 (11757404_x_at) / Fold change /veh ID3 (11757404_x_at) / RFU PLEKHG5 (11737974_s_at) / Fold change /veh PLEKHG5 (11737974_s_at) / RFU LRRC4B (11730491_at) / Fold change /veh LRRC4B (11730491_at) / RFU GIMAP4 (11747438_a_at) / Fold change /veh GIMAP4 (11747438_a_at) / RFU KRT8 (11758183_x_at) / Fold change /veh KRT8 (11758183_x_at) / RFU CNN1 (11734310_a_at) / Fold change /veh CNN1 (11734310_a_at) / RFU VPS37D (11726825_at) / Fold change /veh VPS37D (11726825_at) / RFU C10orf10 (11716522_x_at) / Fold change /veh C10orf10 (11716522_x_at) / RFU KIR2DL2 /// KIR2DL4 /// KIR2DL5A /// KIR2DL5B /// KIR2DS1 /// KIR2DS2 /// KIR2DS3 /// KIR2DS4 /// KIR3DL3 /// KIR3DL3 /// KIR3DS1 (11738374_at) / Fold change /veh KIR2DL2 /// KIR2DL4 /// KIR2DL5A /// KIR2DL5B /// KIR2DS1 /// KIR2DS2 /// KIR2DS3 /// KIR2DS4 /// KIR3DL3 /// KIR3DL3 /// KIR3DS1 (11738374_at) / RFU C1QL1 (11718748_at) / Fold change /veh C1QL1 (11718748_at) / RFU TMPRSS4 (11747572_a_at) / Fold change /veh TMPRSS4 (11747572_a_at) / RFU HAMP (11756126_x_at) / Fold change /veh HAMP (11756126_x_at) / RFU RNFT2 (11725882_a_at) / Fold change /veh RNFT2 (11725882_a_at) / RFU NR4A2 (11747474_a_at) / Fold change /veh NR4A2 (11747474_a_at) / RFU ABCC12 (11746883_a_at) / Fold change /veh ABCC12 (11746883_a_at) / RFU TMEM136 (11760407_x_at) / Fold change /veh TMEM136 (11760407_x_at) / RFU CLDN22 /// WWC2 (11732394_at) / Fold change /veh CLDN22 /// WWC2 (11732394_at) / RFU HLA-DPB1 (11760878_x_at) / Fold change /veh HLA-DPB1 (11760878_x_at) / RFU SPINT1 (11716480_a_at) / Fold change /veh SPINT1 (11716480_a_at) / RFU GAP43 (11754022_s_at) / Fold change /veh GAP43 (11754022_s_at) / RFU A4GNT (11735810_at) / Fold change /veh A4GNT (11735810_at) / RFU PRB3 (11715151_x_at) / Fold change /veh PRB3 (11715151_x_at) / RFU TUBB4B (11761932_at) / Fold change /veh TUBB4B (11761932_at) / RFU CAPN14 (11732068_a_at) / Fold change /veh CAPN14 (11732068_a_at) / RFU TMCC2 (11721928_a_at) / Fold change /veh TMCC2 (11721928_a_at) / RFU IRGQ (11745062_a_at) / Fold change /veh IRGQ (11745062_a_at) / RFU FAM174B (11720279_a_at) / Fold change /veh FAM174B (11720279_a_at) / RFU TMPRSS4 (11748680_a_at) / Fold change /veh TMPRSS4 (11748680_a_at) / RFU FAM212B (11763350_a_at) / Fold change /veh FAM212B (11763350_a_at) / RFU PLEKHG5 (11743358_a_at) / Fold change /veh PLEKHG5 (11743358_a_at) / RFU ZSCAN30 (11745921_a_at) / Fold change /veh ZSCAN30 (11745921_a_at) / RFU CMKLR1 (11741424_a_at) / Fold change /veh CMKLR1 (11741424_a_at) / RFU LOC101060620 /// MAPK8IP1 (11723275_at) / Fold change /veh LOC101060620 /// MAPK8IP1 (11723275_at) / RFU SPTSSB (11747773_x_at) / Fold change /veh SPTSSB (11747773_x_at) / RFU PRSS12 (11739890_at) / Fold change /veh PRSS12 (11739890_at) / RFU BIN1 (11741810_x_at) / Fold change /veh BIN1 (11741810_x_at) / RFU WNT11 (11732464_a_at) / Fold change /veh WNT11 (11732464_a_at) / RFU C10orf10 (11716521_a_at) / Fold change /veh C10orf10 (11716521_a_at) / RFU C5orf56 (11738089_at) / Fold change /veh C5orf56 (11738089_at) / RFU CYB561 (11721691_x_at) / Fold change /veh CYB561 (11721691_x_at) / RFU ANKRD19P (11752326_a_at) / Fold change /veh ANKRD19P (11752326_a_at) / RFU OR2T12 /// OR2T33 /// OR2T8 (11738714_s_at) / Fold change /veh OR2T12 /// OR2T33 /// OR2T8 (11738714_s_at) / RFU VCAN (11748164_a_at) / Fold change /veh VCAN (11748164_a_at) / RFU JSRP1 (11732532_at) / Fold change /veh JSRP1 (11732532_at) / RFU KRTAP10-11 (11738290_x_at) / Fold change /veh KRTAP10-11 (11738290_x_at) / RFU MYO3A (11730013_a_at) / Fold change /veh MYO3A (11730013_a_at) / RFU EBF3 (11725865_a_at) / Fold change /veh EBF3 (11725865_a_at) / RFU CAMK2N1 (11719241_x_at) / Fold change /veh CAMK2N1 (11719241_x_at) / RFU C5orf56 (11738088_a_at) / Fold change /veh C5orf56 (11738088_a_at) / RFU OLFML3 (11715873_a_at) / Fold change /veh OLFML3 (11715873_a_at) / RFU LOC100653217 /// NTM (11731650_a_at) / Fold change /veh LOC100653217 /// NTM (11731650_a_at) / RFU MAPK11 (11762145_a_at) / Fold change /veh MAPK11 (11762145_a_at) / RFU FIZ1 (11724087_x_at) / Fold change /veh FIZ1 (11724087_x_at) / RFU OASL (11726364_x_at) / Fold change /veh OASL (11726364_x_at) / RFU SOX15 (11748057_x_at) / Fold change /veh SOX15 (11748057_x_at) / RFU CD79A (11719716_a_at) / Fold change /veh CD79A (11719716_a_at) / RFU HIST1H1D (11736915_at) / Fold change /veh HIST1H1D (11736915_at) / RFU CASKIN2 (11723855_a_at) / Fold change /veh CASKIN2 (11723855_a_at) / RFU LOC730098 (11760151_x_at) / Fold change /veh LOC730098 (11760151_x_at) / RFU OR4N2 (11742367_at) / Fold change /veh OR4N2 (11742367_at) / RFU PRRT2 (11749266_a_at) / Fold change /veh PRRT2 (11749266_a_at) / RFU SNX32 (11753110_a_at) / Fold change /veh SNX32 (11753110_a_at) / RFU CDHR5 (11726645_a_at) / Fold change /veh CDHR5 (11726645_a_at) / RFU RCAN1 (11760418_a_at) / Fold change /veh RCAN1 (11760418_a_at) / RFU FAM167A (11723789_a_at) / Fold change /veh FAM167A (11723789_a_at) / RFU FAM26E (11764081_at) / Fold change /veh FAM26E (11764081_at) / RFU ISYNA1 (11749810_s_at) / Fold change /veh ISYNA1 (11749810_s_at) / RFU ACY1 (11761880_at) / Fold change /veh ACY1 (11761880_at) / RFU 11764098_at / Fold change /veh 11764098_at / RFU SAMD14 (11745864_x_at) / Fold change /veh SAMD14 (11745864_x_at) / RFU NPB (11741838_a_at) / Fold change /veh NPB (11741838_a_at) / RFU TMPRSS6 (11731388_a_at) / Fold change /veh TMPRSS6 (11731388_a_at) / RFU KRTAP10-2 (11738614_at) / Fold change /veh KRTAP10-2 (11738614_at) / RFU ARHGAP8 /// PRR5-ARHGAP8 (11727945_x_at) / Fold change /veh ARHGAP8 /// PRR5-ARHGAP8 (11727945_x_at) / RFU KRTAP5-7 /// NADSYN1 (11734609_at) / Fold change /veh KRTAP5-7 /// NADSYN1 (11734609_at) / RFU RASL12 (11751679_a_at) / Fold change /veh RASL12 (11751679_a_at) / RFU CDKN2B (11736163_a_at) / Fold change /veh CDKN2B (11736163_a_at) / RFU PRF1 (11729649_at) / Fold change /veh PRF1 (11729649_at) / RFU, ZNF638 /// ZNF638-IT1 / Fold change vs veh, ZNF638 /// ZNF638-IT1 / RFU, PANK3 / Fold change vs veh, PANK3 / RFU, SH3YL1 / Fold change vs veh, SH3YL1 / RFU, ZEB2 / Fold change vs veh, ZEB2 / RFU, NRIP1 / Fold change vs veh, NRIP1 / RFU, PTTG1IP / Fold change vs veh, PTTG1IP / RFU, CAPN2 / Fold change vs veh, CAPN2 / RFU, MED14 / Fold change vs veh, MED14 / RFU, SNORA58 / Fold change vs veh, SNORA58 / RFU, C1orf63 / Fold change vs veh, C1orf63 / RFU, LRRFIP1 / Fold change vs veh, LRRFIP1 / RFU, NDUFAF7 / Fold change vs veh, NDUFAF7 / RFU, SLC12A2 / Fold change vs veh, SLC12A2 / RFU, IBTK / Fold change vs veh, IBTK / RFU, ESF1 / Fold change vs veh, ESF1 / Fold change vs veh, TMEM50B / RFU, TAOK1 / Fold change vs veh, TAOK1 / RFU, ACBD3 / Fold change vs veh, ACBD3 / RFU, TMA16 / Fold change vs veh, TMA16 / RFU, RWDD3 / Fold change vs veh, RWDD3 / RFU, BCAT1 / Fold change vs veh, BCAT1 / RFU, EDEM3 / Fold change vs veh, EDEM3 / RFU, TMEM33 / Fold change vs veh, TMEM33 / RFU, WDR75 / Fold change vs veh, WDR75 / RFU, AHCTF1 / Fold change vs veh, AHCTF1 / RFU, TFRC / Fold change vs veh, TFRC / RFU, ZDHHC17 / Fold change vs veh, ZDHHC17 / RFU, NOM1 / Fold change vs veh, NOM1 / RFU, ARL8B / Fold change vs veh, ARL8B / RFU, ZBTB11 / Fold change vs veh, ZBTB11 / RFU, TAMM41 / Fold change vs veh, TAMM41 / RFU, KIAA1704 /// LOC100996395 / Fold change vs veh, KIAA1704 /// LOC100996395 / RFU, ING1 / Fold change vs veh, ING1 / RFU, TRMT61B / Fold change vs veh, TRMT61B / RFU, FUBP3 / Fold change vs veh, FUBP3 / RFU, TP53 / Fold change vs veh, TP53 / RFU, TNKS2 / Fold change vs veh, TNKS2 / RFU, ZFP14 / Fold change vs veh, ZFP14 / RFU, ACTR2 / Fold change vs veh, ACTR2 / RFU, PPP3R1 / Fold change vs veh, PPP3R1 / RFU, PIK3R1 / Fold change vs veh, PIK3R1 / RFU, HNRNPA1 / Fold change vs veh, HNRNPA1 / RFU, RNF170 / Fold change vs veh, RNF170 / RFU, ZNF28 / Fold change vs veh, ZNF28 / RFU, RNGTT / Fold change vs veh, RNGTT / RFU, OGT / Fold change vs veh, OGT / RFU, BRD1 / Fold change vs veh, BRD1 / RFU, MARS / Fold change vs veh, MARS / RFU, ZNF655 / Fold change vs veh, ZNF655 / RFU, FAHD1 / Fold change vs veh, FAHD1 / RFU, BDP1 / Fold change vs veh, BDP1 / RFU, LRRCC1 / Fold change vs veh, LRRCC1 / RFU, ARID1A / Fold change vs veh, ARID1A / RFU, ZNF146 / Fold change vs veh, ZNF146 / RFU, ZNF330 / Fold change vs veh, ZNF330 / RFU, GPN3 / Fold change vs veh, GPN3 / RFU, C9orf123 / Fold change vs veh, C9orf123 / RFU, N4BP2L2 / Fold change vs veh, N4BP2L2 / RFU, ARFIP1 / Fold change vs veh, ARFIP1 / RFU, FAM179B / Fold change vs veh, FAM179B / RFU, BCL10 / Fold change vs veh, BCL10 / RFU, UHRF1BP1L / Fold change vs veh, UHRF1BP1L / RFU, BET1 / Fold change vs veh, BET1 / RFU, CNOT2 / Fold change vs veh, CNOT2 / RFU, ZNF268 / Fold change vs veh, ZNF268 / Fold change vs veh, ZNF507 / RFU, DGCR2 / Fold change vs veh, DGCR2 / RFU, WDSUB1 / Fold change vs veh, WDSUB1 / Fold change vs veh, HSP90B1 /// MIR3652 / RFU, ADSS / Fold change vs veh, ADSS / RFU, GK / Fold change vs veh, GK / RFU, ZNF148 / Fold change vs veh, ZNF148 / RFU, TAF9 / Fold change vs veh, TAF9 / RFU, SLC1A5 / Fold change vs veh, SLC1A5 / RFU, SLMO2 / Fold change vs veh, SLMO2 / RFU, ABCC4 / Fold change vs veh, ABCC4 / RFU, LOC101060439 /// RAP1B / Fold change vs veh, LOC101060439 /// RAP1B / RFU, RFX7 / Fold change vs veh, RFX7 / RFU, GTPBP10 / Fold change vs veh, GTPBP10 / RFU, CNEP1R1 / Fold change vs veh, CNEP1R1 / RFU, BIVM-ERCC5 /// ERCC5 / Fold change vs veh, BIVM-ERCC5 /// ERCC5 / RFU, ILF3 / Fold change vs veh, ILF3 / RFU 11762660_at / Fold change /veh 11762660_at / RFU VCAN (11757783_s_at) / Fold change /veh VCAN (11757783_s_at) / RFU DDX43 (11728927_at) / Fold change /veh DDX43 (11728927_at) / RFU KRT8 (11758188_x_at) / Fold change /veh KRT8 (11758188_x_at) / RFU NKD1 (11759106_at) / Fold change /veh NKD1 (11759106_at) / RFU SRD5A1 (11742802_a_at) / Fold change /veh SRD5A1 (11742802_a_at) / RFU TPSAB1 /// TPSB2 (11721975_s_at) / Fold change /veh TPSAB1 /// TPSB2 (11721975_s_at) / RFU GSTM3 (11746129_a_at) / Fold change /veh GSTM3 (11746129_a_at) / RFU IL23R (11737362_x_at) / Fold change /veh IL23R (11737362_x_at) / RFU TMEM51 (11727254_a_at) / Fold change /veh TMEM51 (11727254_a_at) / RFU PIWIL2 (11732686_x_at) / Fold change /veh PIWIL2 (11732686_x_at) / RFU ORM1 (11744905_x_at) / Fold change /veh ORM1 (11744905_x_at) / RFU CCDC152 (11743942_at) / Fold change /veh CCDC152 (11743942_at) / RFU ECM1 (11717891_a_at) / Fold change /veh ECM1 (11717891_a_at) / RFU IL23R (11748794_a_at) / Fold change /veh IL23R (11748794_a_at) / RFU TNFAIP8L3 (11732012_x_at) / Fold change /veh TNFAIP8L3 (11732012_x_at) / RFU MBOAT4 (11741988_at) / Fold change /veh MBOAT4 (11741988_at) / RFU 11764193_at / Fold change /veh 11764193_at / RFU TMEM53 (11763286_at) / Fold change /veh TMEM53 (11763286_at) / RFU MAGEB2 (11727129_at) / Fold change /veh MAGEB2 (11727129_at) / RFU TMEM200A (11744735_a_at) / Fold change /veh TMEM200A (11744735_a_at) / RFU CCDC152 (11751479_a_at) / Fold change /veh CCDC152 (11751479_a_at) / RFU FAM211A (11726209_a_at) / Fold change /veh FAM211A (11726209_a_at) / RFU RGS16 (11746705_a_at) / Fold change /veh RGS16 (11746705_a_at) / RFU VCAN (11755009_s_at) / Fold change /veh VCAN (11755009_s_at) / RFU RHOB (11743442_s_at) / Fold change /veh RHOB (11743442_s_at) / RFU RGS16 (11720943_a_at) / Fold change /veh RGS16 (11720943_a_at) / RFU RGS16 (11720944_at) / Fold change /veh RGS16 (11720944_at) / RFU, VPS4B / Fold change vs veh, VPS4B / RFU, CREB1 / Fold change vs veh, CREB1 / RFU, DNAJC13 / Fold change vs veh, DNAJC13 / RFU, GNAQ / Fold change vs veh, GNAQ / RFU, CDK5R1 / Fold change vs veh, CDK5R1 / RFU, ZRANB3 / Fold change vs veh, ZRANB3 / RFU, CUL4A / Fold change vs veh, CUL4A / RFU, CCNY / Fold change vs veh, CCNY / RFU, UFL1 / Fold change vs veh, UFL1 / RFU, COG3 / Fold change vs veh, COG3 / RFU, DIAPH2 / Fold change vs veh, DIAPH2 / RFU, SKA2 / Fold change vs veh, SKA2 / RFU, AFF3 / Fold change vs veh, AFF3 / RFU, LMF1 / Fold change vs veh, LMF1 / RFU, IPO11 / Fold change vs veh, IPO11 / RFU, DFFB / Fold change vs veh, DFFB / RFU, FOXP1 / Fold change vs veh, FOXP1 / RFU, CARD8 / Fold change vs veh, CARD8 / RFU, STRN3 / Fold change vs veh, STRN3 / RFU, ADK / Fold change vs veh, ADK / RFU, RASSF2 / Fold change vs veh, RASSF2 / RFU, WIPF1 / Fold change vs veh, WIPF1 / RFU, LARP1B / Fold change vs veh, LARP1B / RFU, RASA1 / Fold change vs veh, RASA1 / RFU, RB1 / Fold change vs veh, RB1 / RFU, PPFIA1 / Fold change vs veh, PPFIA1 / RFU, MAT2A / Fold change vs veh, MAT2A / RFU, CCT5 / Fold change vs veh, CCT5 / RFU, WDR92 / Fold change vs veh, WDR92 / RFU, CUX1 / Fold change vs veh, CUX1 / RFU, TTC7A / Fold change vs veh, TTC7A / RFU, TMEM135 / Fold change vs veh, TMEM135 / RFU, DEPTOR / Fold change vs veh, DEPTOR / RFU, CPM / Fold change vs veh, CPM / RFU, DNAJB6 / Fold change vs veh, DNAJB6 / RFU, CACNA2D3 / Fold change vs veh, CACNA2D3 / RFU, DTX4 / Fold change vs veh, DTX4 / RFU, TFCP2 / Fold change vs veh, TFCP2 / RFU, GMCL1 /// GMCL1P1 / Fold change vs veh, GMCL1 /// GMCL1P1 / RFU, AEBP2 / Fold change vs veh, AEBP2 / RFU, SNHG1 /// SNORD22 /// SNORD25 /// SNORD26 /// SNORD27 /// SNORD28 /// SNORD29 /// SNORD31 / Fold change vs veh, SNHG1 /// SNORD22 /// SNORD25 /// SNORD26 /// SNORD27 /// SNORD28 /// SNORD29 /// SNORD31 / Fold change (Aza/veh), C12orf56 (ProbeSet 11735607_a_at) / Fold change (ACY-1035/veh), C12orf56 (ProbeSet 11735607_a_at) / Fold change (Aza/veh), FGFR1OP (ProbeSet 11751329_s_at) / Fold change (ACY-1035/veh), FGFR1OP (ProbeSet 11751329_s_at) / Fold change (Aza/veh), VPS36 (ProbeSet 11739960_a_at) / Fold change (ACY-1035/veh), VPS36 (ProbeSet 11739960_a_at) / RFU SYPL1 (11715823_x_at) / Fold change /veh SYPL1 (11715823_x_at) / RFU IGFBP7 (11715501_s_at) / Fold change /veh IGFBP7 (11715501_s_at) / RFU REEP3 (11722064_at) / Fold change /veh REEP3 (11722064_at) / RFU IGLL1 (11728026_x_at) / Fold change /veh IGLL1 (11728026_x_at): dose or concentration left out as unconfirmed
Conditions: MV-4-11 cells, 48 hours

Compound: Nc1ncn([C@@H]2O[C@H](CO)[C@@H](O)[C@H]2O)c(=O)n1 [azacitidine]
- Fold change /veh CDKN2B (11736163_a_at): 1.08
